This note sets out measurements from patent US7651692B2, “Use of extracts of the plant Litchi chinensis sonn” (Cognis France S.A., priority 2001, dated 2010).

Where two headings read alike, the source gives them in different places.

One data set concerns elastase. The data set is described as follows: Inhibition of elastase activity. The conditions noted are these: concentration 0.1 % (w/v). The data set is classed as biochemical. Here is the method: Serine proteases, such as elastase for example, degrade elastin, proteoglycans and collagen and thus weaken the connective tissue. […] The incubation time was 30 mins. at room temperature. The inhibition was followed photometrically at 410 nm; 1′α1-antitrypsin was used as positive standard.

For data set [1], the system named is human fibroblasts. The data set is classed as cell-based. Here is the method: Human fibroblasts were inoculated with 10% by weight fetal calf serum in a defined nutrient medium (DMEM=Dulbecco Minimum Essential Medium, a product of Life Technologie S.a.r.l.) and incubated for 24 h at 37° C. in a 5% CO2 atmosphere. The nutrient medium containing fetal calf serum was then replaced by a nutrient medium of DMEM without fetal calf serum. Active substance in the form of the two extracts of the pericarp of Litchi chinensis Sonn. was then added to this nutrient medium in various concentrations.

Data set [2] in a line: DPPH Test (chemical test, activity towards free radicals). An excerpt:
(§1) The first test substrate selected was diphenyl picryl hydrazyl (DPPH), a purple-red colored stable radical which changes into its colorless leuco derivative on contact with radical trappers. The change of color can be followed photometrically. The test results are set out in Table 3 (DPPH Test). In another test, the hydroxylation of salicylic acid by hydroxyl radicals (from the reaction of hydrogen peroxide with iron(III) ions and EDTA) was investigated as a reference system. This reaction can also be photometrically investigated because the hydroxylation product is reddish in color. The influence of the extracts on the formation of hydroxysalicylic acid was measured at an optical density of 490 nm. In a third and final test, xanthine oxidase was selected as the test system. Under oxidative tress, the enzyme converts purine bases, for example adenine or guanine, into […]. The oxygen radicals intermediately formed can be detected by reaction with luminol (via the luminescence) and quantitatively determined. The luminescence output diminishes in the presence of substances with radical-trapping properties.

The nature of data set [3]: Luminol + microperoxydase (biochemical test).
Another data set has as its target xanthine oxidase. Kind of data set: Luminol Test with xanthine oxidase (biochemical test).
From the text: as §1

A short description of data set [4]: Fenton's reaction: hydroxylation of salicylic acid by hydroxyl radicals. The conditions noted are these: formation of hydroxysalicylic acid, optical density 490 nm.
From the text: as §1

The subject of the next data set is TIMP-1. The data set is described as follows: TIMP-1 poured out by fibroblasts. It is filed as cell-based, human. The conditions noted are these: concentration not printed in this line. Here is the method: (§2) This test is used to evaluate the ability of the litchi extract to reduce the toxic effects of UV-A radiation on human fibroblasts cultivated in vitro. To this end, both the quantity of the enzyme MMP-1 (matrix metalloproteinase) poured out and the quantity of the natural enzyme inhibitor TIMP-1 are determined. UV-A radiation is used in this test because it can penetrate into the dermis and induce oxidative stress which leads to ageing of the skin.
(§3) To this end, the fibroblasts are cultivated in a precisely defined medium containing fetal calf serum. […] After further incubation for one day at 37° C./5% CO2, the culture medium is replaced by a salt solution and the fibroblasts are exposed to UV-A (15 J/cm^2, lamp: SOL500, Dr. Höhnle. filter: H1, radiometer: Vibert Lourmat). After the exposure, the fibroblasts are incubated for another two days. The MMO-1 and TIMP-1 contents of the supernatant medium are determined with an Amersham test kit (Kit No. RPN2610 and RPN2611). No extract was added to the control.

For another data set, the system named is MMP-1. Kind of data set: Inhibition of collagenase synthesis: MMP-1 poured out by fibroblasts. It is filed as cell-based, human. The settings on record: 0.1 μm. As to the method: as §2, §3
The test system of data set [5] is human leucocytes (neutrophilic granulocytes). The data set is described as follows: Anti-inflammatory activity: respiratory burst, released oxygen radicals. The data set is classed as cell-based. The settings on record: 0.001% by weight. As to the method:
Method: Anti-inflammatory activity was studied on a cell line of human leucocytes (neutrophilic granulocytes). To this end, the cells were incubated with various concentrations of extracts of Example 1 to be tested, after which a respiratory burst was induced by yeast cell extract (“zymosan”) by activation of the cells for 30 mins. with 0.1 ml zymosan. The content of oxygen radicals intermediately formed was determined for 60 seconds by reaction with luminol via the luminescence and quantitatively evaluated. The luminescence yield falls in the presence of substances with radical-trapping properties. The percentage of released radicals was determined against a reference substance (Minocycline—a radical trapper). The results are expressed in % relative to the control. For control purposes, the number of intact cells was determined with a particle counter and is shown in % by comparison with the control.

In another data set the test system is human keratinocytes. Kind of data set: Cell protecting effect against UV-B in human keratinocytes cultivated in vitro. The settings on record: UV-B 50 mJ/cm^2; 0.001% substance; level in % by comparison with the control. The data set is classed as cell-based.
The next data set deals with Human plasmin (Homo sapiens, UniProt P00747). The data set is described as follows: Plasmin inhibition after addition of the synthetic substrate. The data set is classed as biochemical. The settings on record: 50 μg/ml. As to the method: Thereafter, either synthetic substrate, especially “Val-Leu-paranitroanilide”, a product of Chromogenix, or natural pro-MMP3 obtained from Merck-Eurolab was added to the mixture. In the case of the synthetic substrate, absorption at 405 nm was measured every 5 minutes over a period of 30 minutes and the release of paranitroanilines was thus determined.
Sequence of Human plasmin (P00747 581-810 limits assumed): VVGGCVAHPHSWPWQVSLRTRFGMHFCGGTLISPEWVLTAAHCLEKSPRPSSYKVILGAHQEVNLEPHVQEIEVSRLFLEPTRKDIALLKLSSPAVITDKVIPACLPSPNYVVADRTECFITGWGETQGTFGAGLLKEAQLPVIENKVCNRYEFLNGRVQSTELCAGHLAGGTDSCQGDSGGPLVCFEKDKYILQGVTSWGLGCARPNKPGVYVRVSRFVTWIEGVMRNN
Sequence of Human plasmin (P00747 97-580 partner limits assumed): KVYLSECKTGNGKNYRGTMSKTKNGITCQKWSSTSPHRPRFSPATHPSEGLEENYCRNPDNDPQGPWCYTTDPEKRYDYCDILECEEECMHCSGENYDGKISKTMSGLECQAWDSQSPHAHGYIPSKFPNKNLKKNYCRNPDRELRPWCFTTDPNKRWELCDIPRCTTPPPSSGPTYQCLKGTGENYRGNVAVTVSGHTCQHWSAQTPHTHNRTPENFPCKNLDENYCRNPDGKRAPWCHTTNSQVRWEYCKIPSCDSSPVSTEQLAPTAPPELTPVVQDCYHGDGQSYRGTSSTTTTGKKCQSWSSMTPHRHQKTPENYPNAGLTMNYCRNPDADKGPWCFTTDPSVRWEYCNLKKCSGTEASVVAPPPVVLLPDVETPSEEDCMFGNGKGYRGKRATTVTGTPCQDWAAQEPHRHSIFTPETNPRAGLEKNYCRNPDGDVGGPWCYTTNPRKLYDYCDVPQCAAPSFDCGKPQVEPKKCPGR
The inhibition of enzymatic activity was tested against a control with no substrate and against a reference substance, more particularly Aprotinine, a product of Sigma.

The target in the next data set is T1, human MMP-1 (Homo sapiens, UniProt P03956).
T1 sequence (P03956 100-469): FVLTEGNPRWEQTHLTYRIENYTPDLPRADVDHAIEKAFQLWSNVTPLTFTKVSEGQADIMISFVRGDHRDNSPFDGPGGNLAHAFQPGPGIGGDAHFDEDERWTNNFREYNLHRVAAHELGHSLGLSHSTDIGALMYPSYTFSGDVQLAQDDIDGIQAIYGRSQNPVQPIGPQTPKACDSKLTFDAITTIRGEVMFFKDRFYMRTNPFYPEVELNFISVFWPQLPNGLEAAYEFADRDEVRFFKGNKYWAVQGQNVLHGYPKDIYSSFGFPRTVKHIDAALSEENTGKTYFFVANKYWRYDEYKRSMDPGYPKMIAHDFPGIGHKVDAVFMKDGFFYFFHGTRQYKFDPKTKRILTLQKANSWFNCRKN
Kind of data set: Inhibition of collagenase activity (MMP-1). It is filed as biochemical. The settings on record: concentration 50 nmol. As to the method: After exposure to the sun, dermal fibroblasts of elderly people pour out collagenases—also known as matrix metalloprotease (MMP). […] The incubation time was 60 mins. at room temperature. The hydrolysis of the substrate was determined by fluorescence spectrometry at λem=393 nm (λex=328 nm). The […] TIMP-1 (MMP inhibitor occurring naturally in tissue) was used as the comparison standard.

Data set [6] has as its system human fibroblasts. Kind of data set: Cell protecting effect against UV-A on human fibroblasts cultivated in vitro. It is filed as cell-based. The settings on record: UV-A 20 J/cm^2; 0.0003% substance; level in % by comparison with the control. As to the method:
Method: To carry out these tests, a defined culture medium containing the fibroblasts is inoculated with foetal calf serum and added to the plant extract (in the defined medium containing 10% fetal calf serum) 72 hours after inoculation.
After incubation for 48 hours at 37° C./5% CO2, the culture medium was replaced by saline solution (physiological NaCl solution) and the fibroblasts were exposed to a dose of UV-A (365 nm, 20 J/cm^2; tubes: MAZDA FLUOR TFWN40).
After the exposure to UV-A, the MDA level (malonaldialdehyde level) in the supernatant sodium chloride solution was quantitatively determined by reaction with thiobarbituric acid.

Setting [7] is: After exposure to UV-A (15 J/cm^2).

Method for human keratinocytes: Method: The effect of UV-B radiation was investigated in vitro in keratinocytes by determining the release of the cytoplasm enzyme LDH (lactate dehydrogenase). This enzyme serves as a marker for cell damage.
To carry out the tests, a defined medium containing fetal calf serum was inoculated with the keratinocytes and the plant extract (diluted with saline solution) was added 72 hours after the inoculation.
The keratinocytes were then exposed to a dose of UV-B (50 mJ/cm^2-tubes: DUKE FL40E).
After incubation for another day at 37° C./5% CO2, the LDH content in the supernatant was determined. The LDH (lactate dehydrogenase) content was determined by an enzyme reaction (kit used to determine LDH levels from Roche). The number of adhering keratinocytes was determined (after trypsin treatment) with a particle counter.

As for “1′α1-Antitrypsin: natural elastase inhibitor used as positive standard”, in the data set with elastase, the “Elastase inhibition in %” value was determined as 68%.
Take `O=C1O[C@H]([C@@H](O)CO)C(O)=C1O` [Ascorbic acid]: the “EC50 in %, NBT” value in “NBT (biochemical test)” is 0.5909%. In the data set with human fibroblasts [1] (human fibroblasts, 3 days, intracellular ATP content), the “LD50 in % (w/v), ATP” value was 0.0056 % (w/v). In addition, the “LD50 in % (w/v), Proteins” value in the data set on human fibroblasts [1] (human fibroblasts, 3 days, protein content (Bradford)) is reported as 0.0055 % (w/v). Besides, the “EC50 in %, DPPH Test” value in data set [2] stood at 0.0013%. The “EC50 in %, Luminol + microperoxydase” value in data set [3] stood at 0.0058%. Besides, the “EC50 in %, Luminol” value at xanthine oxidase amounted to 0.0006%. For the same compound, the “EC50 in %, Fenton's reaction” value in data set [4] is 0.1%.
Take `C[C@@H]1C[C@H]2[C@@H]3CCC4=CC(=O)C=C[C@]4(C)[C@@]3(F)[C@@H](O)C[C@]2(C)[C@@]1(O)C(=O)CO` [Dexamethasone]: the TIMP-1 poured out is 19 ng/mL with TIMP-1 (setting [7]) and 39 ng/mL with TIMP-1 (Without exposure to UV-A). Also, the MMP-1 poured out is 7 ng/mL with MMP-1 (setting [7]) and 2 ng/mL with MMP-1 (Without exposure to UV-A).
Regarding `CN(C)c1ccc(O)c2c1C[C@H]1C[C@H]3[C@H](N(C)C)C(O)=C(C(N)=O)C(=O)[C@@]3(O)C(O)=C1C2=O` [Minocycline], the “No. of intact cells” value in data set [5] (in % by comparison with the control) was determined as 100%. For the same compound, the “ROS content (%/control)” value in data set [5] (zymosan-induced respiratory burst) is on record as 28 %/control.
Turning to `CC(=O)Oc1ccccc1C(=O)O` [aspirin], in the data set on human keratinocytes, the LDH released came to 68% and the No. of keratinocytes came to 33%.
For the compound Aprotinine, the “% Inhibition compared with the control (plasmin)” value on Human plasmin is given as 100%.
Turning to “TIMP-1: MMP inhibitor occurring naturally in tissue, used as the comparison standard”, the “MMP-1 Inhibition in %” value in the data set with human MMP-1 came to 93%.
Regarding tocopherol, the “EC50 in %, NBT” value in “NBT (biochemical test)” is “No effect up”. For the same compound, in the data set with human fibroblasts [1], the “LD50 in % (w/v), ATP” value is recorded as “Nt toxic up” and the “LD50 in % (w/v), Proteins” value is on record as “Not toxic up”. Further, in data set [2], the “EC50 in %, DPPH Test” value came out at 0.0067%. The “EC50 in %, Luminol + microperoxydase” value in data set [3] was “No effect up”. Moreover, the “EC50 in %, Luminol” value on xanthine oxidase is listed as “No effect up”. In the data set on human fibroblasts [6], the Cell proteins was determined as 97%, the GSH/protein was 78% and the MDA released came to 11%.
